The experiment addresses Phospholipase D1 (Homo sapiens) (UniProt Q13393). The experiment in a line: phospholipase D1 enzyme inhibition confirmation – biochemical, concentration response (AID 743390). Conditions: purified human PLD1 enzyme activity assay.

SMILES strings stand for the structures.

The term IC50 denotes the concentration at which inhibition is half-maximal.

Sequence of Phospholipase D1 (Homo sapiens) (Q13393 whole entry, looked up): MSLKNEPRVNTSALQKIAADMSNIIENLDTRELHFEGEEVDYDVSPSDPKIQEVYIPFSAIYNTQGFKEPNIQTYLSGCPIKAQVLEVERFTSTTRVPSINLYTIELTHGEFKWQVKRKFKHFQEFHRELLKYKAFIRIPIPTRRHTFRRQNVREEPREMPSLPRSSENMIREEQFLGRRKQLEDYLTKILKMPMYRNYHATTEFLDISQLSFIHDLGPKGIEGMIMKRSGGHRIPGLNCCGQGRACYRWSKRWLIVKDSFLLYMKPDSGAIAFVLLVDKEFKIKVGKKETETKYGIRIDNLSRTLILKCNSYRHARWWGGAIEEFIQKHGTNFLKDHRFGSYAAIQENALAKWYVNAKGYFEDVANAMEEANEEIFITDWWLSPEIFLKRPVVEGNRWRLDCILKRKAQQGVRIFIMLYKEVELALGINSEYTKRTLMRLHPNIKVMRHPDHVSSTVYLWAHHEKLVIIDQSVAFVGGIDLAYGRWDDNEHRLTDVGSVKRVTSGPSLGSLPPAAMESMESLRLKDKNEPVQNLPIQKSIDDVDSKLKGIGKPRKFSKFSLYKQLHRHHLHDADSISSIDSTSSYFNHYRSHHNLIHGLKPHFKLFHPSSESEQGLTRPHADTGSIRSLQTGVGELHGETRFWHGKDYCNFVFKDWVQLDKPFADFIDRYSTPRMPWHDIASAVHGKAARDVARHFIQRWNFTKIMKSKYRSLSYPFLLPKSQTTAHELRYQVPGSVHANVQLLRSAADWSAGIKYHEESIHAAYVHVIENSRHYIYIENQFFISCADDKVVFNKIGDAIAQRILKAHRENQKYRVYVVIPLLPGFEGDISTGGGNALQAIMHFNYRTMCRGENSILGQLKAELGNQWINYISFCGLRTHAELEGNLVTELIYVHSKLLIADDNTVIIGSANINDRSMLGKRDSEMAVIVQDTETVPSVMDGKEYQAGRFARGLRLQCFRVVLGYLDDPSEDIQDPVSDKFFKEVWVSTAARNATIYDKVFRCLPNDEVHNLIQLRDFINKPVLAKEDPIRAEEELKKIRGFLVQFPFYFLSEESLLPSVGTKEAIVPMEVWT

As for `O=C(NCCN1CCC2(CC1)C(=O)NCN2Cc1cccnc1)c1cc2ccccc2o1`, the IC50 was 20 µM. Under `O=C(NCCN1CCC2(CC1)C(=O)NCN2Cc1cccnc1)c1ccc2ccccc2c1` stands 20 µM.

Values taken from PubChem BioAssay AID743390 (Vanderbilt Specialized Chemistry Center, 2014).
